Read-outs that look alike come from different tables or passages of the source.
Experiments:
[1] = molecular target: T1, Human recombinant cyclophilin A (Cyp A) (Homo sapiens, UniProt P62937); assay: Protease-free PPIase assay; settings: read-out: Protease-free PPIase Assay Ki; Cyclophilin A (Cyp A) inhibitory activity;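 further: cis to trans isomerization of SUC-AAPF-pNA by 2 nM enzyme, read as absorbance at 330 nm over 300 s at 10 °C, catalytic rate corrected for uncatalyzed background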
[2] = molecular target: Calcineurin (Homo sapiens, UniProt P62937+P63098+Q08209); assay: Calcineurin Phosphatase (CaN) Assay with Cyp A (+CypA); settings: read-out: Calcineurin Phosphatase (CaN) Assay (+CypA) IC50, in the presence of Cyp A
[3] = Water Solubility Assay (measured in pH 7.8 buffer); assay type: physicochemical;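 further: precipitation onset detected as rise in absorbance at 650 nm across increasing concentrations, after shaking for 18 h, blank wells receiving DMSO only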
Procedure: The aqueous solubility of a compound of Formula I in buffer (pH 7.8) was measured by recording the onset of precipitation of the compound as a function of increasing concentration. The onset of precipitation, if it occurred, was detected by an increase in absorbance at 650 nm.
Assay Buffer: 35 mM HEPES pH 7.8
Stock solutions of Control and Test Compounds: 10 mM in 100% DMSO
10 mM stock solutions of control and test compounds were prepared in 100% DMSO.
Assay buffer (247.5 μl) was placed into flat bottomed transparent 96-well plate. For blank samples DMSO (2.5 μl) was added. For test and control samples 2.5 μl of the appropriate DMSO dilution stocks were added to the appropriate well. All test and control compounds were performed in triplicate.
The plates were sealed with adhesive plate seal and shaken at 250 rpm at 25° C. for 18 h on a plate shaker.
After incubation the plate seals were taken off and any bubbles observed in wells removed. The plates were read on a SpectraMaxM5 with a 5 s pre-shake at 650 nm.
Data files were transferred to the appropriate worksheet and the solubility range of the compounds was calculated from the data.

[4] = molecular target: T1, Human recombinant cyclophilin A (Cyp A)
[5] = 35 mM HEPES pH 7.8, 1% DMSO, 25 °C, 18 h, read-out: Water Solubility Assay, concentration at which the compound remains in solution
[6] = pH 7.8, read-out: Water Solubility Assay

Calcineurin, sequence (P63098 whole entry, other chains not shown): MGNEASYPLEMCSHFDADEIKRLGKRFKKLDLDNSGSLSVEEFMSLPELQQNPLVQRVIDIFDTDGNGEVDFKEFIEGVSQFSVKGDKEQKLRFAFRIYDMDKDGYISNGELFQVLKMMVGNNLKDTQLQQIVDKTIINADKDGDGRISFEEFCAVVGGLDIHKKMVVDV
Calcineurin, sequence (P62937 whole entry, other chains not shown): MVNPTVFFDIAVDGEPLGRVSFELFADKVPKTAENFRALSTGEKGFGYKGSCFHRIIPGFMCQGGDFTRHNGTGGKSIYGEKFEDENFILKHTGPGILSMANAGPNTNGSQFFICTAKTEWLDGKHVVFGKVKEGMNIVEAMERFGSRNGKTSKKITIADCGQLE
T1 sequence (P62937 whole entry): as the sequence (P62937 whole entry, other chains not shown) above

Compound | Ki [4] | other results
CCC1NC(=O)C(C(O)C(C)CCN2CCOCC2C(F)(F)F)N(C)C(=O)C(C(C)C)N(C)C(=O)C(CC(C)C)N(C)C(=O)C(CC(C)C)N(C)C(=O)C(C)NC(=O)C(C)NC(=O)C(CC(C)C)N(C)C(=O)C(C(C)C)NC(=O)C(CC(C)C)N(C)C(=O)C(C)N(C)C1=O (mixture of isomers) [Compound EC, [(3R,4R,5S)-4-Hydroxy-3-methyl-5-(methylamino)-1-(3-trifluoromethyl-morpholin-4-yl)-hexanoic acid]^1[(R)-methyl-Sar]^3 cyclosporin A] | – | Ki [1]: 5.2 nM; IC50 [2]: > 10000 nM
CC[C@H]1NC(=O)[C@@H]([C@H](O)[C@H](C)CCCC(=O)N2CCS(=O)(=O)CC2)N(C)C(=O)[C@@H](C(C)C)N(C)C(=O)[C@@H](CC(C)C)N(C)C(=O)[C@@H](CC(C)C)N(C)C(=O)[C@H](C)NC(=O)[C@@H](C)NC(=O)[C@@H](CC(C)C)N(C)C(=O)[C@@H](C(C)C)NC(=O)[C@H](CC(C)C)N(C)C(=O)[C@@H](C)N(C)C1=O [Compound Z, [(5R,6R,7S)-6-hydroxy-5-methyl-7-(methylamino)-1-({1,1-dioxo}thiomorpholin-4-yl)-1-oxo-octanoic acid]^1[(R)-methyl-Sar]^3 cyclosporin A] | 2 nM | solubility at 18 h [3, 5]: >100 µM
CC[C@H]1NC(=O)[C@@H]([C@H](O)[C@H](C)CCCC(=O)N2CCOCC2)N(C)C(=O)[C@@H](C(C)C)N(C)C(=O)[C@@H](CC(C)C)N(C)C(=O)[C@@H](CC(C)C)N(C)C(=O)[C@H](C)NC(=O)[C@@H](C)NC(=O)[C@@H](CC(C)C)N(C)C(=O)[C@@H](C(C)C)NC(=O)[C@H](CC(C)C)N(C)C(=O)CN(C)C1=O [Compound E, [(5R,6R,7S)-6-hydroxy-5-methyl-7-(methylamino)-1-N-morpholino-1-oxo-octanoic acid]^1 cyclosporin A] | – | IC50 ([2]; 1:1 complex with inhibitor): > 10000 nM
CC[C@H]1NC(=O)[C@@H]([C@H](O)[C@H](C)CCCC(=O)NCC2COCCO2)N(C)C(=O)[C@@H](C(C)C)N(C)C(=O)[C@@H](CC(C)C)N(C)C(=O)[C@@H](CC(C)C)N(C)C(=O)[C@H](C)NC(=O)[C@@H](C)NC(=O)[C@@H](CC(C)C)N(C)C(=O)[C@@H](C(C)C)NC(=O)[C@H](CC(C)C)N(C)C(=O)[C@@H](C)N(C)C1=O (some centres unmarked) [Compound ZX] | 2.3 nM | solubility at 18 h [3, 5]: >100 µM
CCC1NC(=O)C(C(O)C(C)CCN2CC(OC)C2)N(C)C(=O)C(C(C)C)N(C)C(=O)C(CC(C)C)N(C)C(=O)C(CC(C)C)N(C)C(=O)C(C)NC(=O)C(C)NC(=O)C(CC(C)C)N(C)C(=O)C(C(C)C)NC(=O)C(CC(C)C)N(C)C(=O)C(C)N(C)C1=O [Compound EH, [[(3R,4R,5S)-4-Hydroxy-1-(3-methoxy-azetidin-1-yl)-3-methyl-5-(methylamino)-hexanoic acid]^1[(R)-methyl-Sar]^3 cyclosporin A] | 17 nM | solubility at 18 h [3, 6]: >100 µM
CCC1NC(=O)C(C(O)C(C)CCCC(=O)NCCS(=O)(=O)N(C)C)N(C)C(=O)C(C(C)C)N(C)C(=O)C(CC(C)C)N(C)C(=O)C(CC(C)C)N(C)C(=O)C(C)NC(=O)C(C)NC(=O)C(CC(C)C)N(C)C(=O)C(C(C)C)NC(=O)C(CC(C)C)N(C)C(=O)C(C)N(C)C1=O [Compound W, [(5R,6R,7S)-6-hydroxy-5-methyl-7-(methylamino)-1-(2-{sulfonic acid dimethylamide}-ethylamino)-1-oxo-octanoic acid]^1[(R)-methyl-Sar]^3 cyclosporin A] | 1.9 nM | solubility at 18 h [3, 5]: >100 µM
CC[C@H]1NC(=O)[C@@H]([C@H](O)[C@H](C)CCNCCOC)N(C)C(=O)[C@@H](C(C)C)N(C)C(=O)[C@@H](CC(C)C)N(C)C(=O)[C@@H](CC(C)C)N(C)C(=O)[C@H](C)NC(=O)[C@@H](C)NC(=O)[C@@H](CC(C)C)N(C)C(=O)[C@@H](C(C)C)NC(=O)[C@H](CC(C)C)N(C)C(=O)[C@@H](C)N(C)C1=O [Compound AF, [(3R,4R,5S)-4-Hydroxy-3-methyl-5-(methylamino)-1-(2-methoxyethylamino)-hexanoic acid]^1[(R)-methyl-Sar]^3 cyclosporin A] | 28 nM | –
CCC1NC(=O)C(C(O)C(C)CCCC(=O)NCCc2c[nH]cn2)N(C)C(=O)C(C(C)C)N(C)C(=O)C(CC(C)C)N(C)C(=O)C(CC(C)C)N(C)C(=O)C(C)NC(=O)C(C)NC(=O)C(CC(C)C)N(C)C(=O)C(C(C)C)NC(=O)C(CC(C)C)N(C)C(=O)C(C)N(C)C1=O [Compound Y, [(5R,6R,7S)-6-hydroxy-5-methyl-7-(methylamino)-1-(2-{1H-imidazol-4-yl}-ethylamino)-1-oxo-octanoic acid]^1[(R)-methyl-Sar]^3 cyclosporin A] | 4.1 nM | solubility at 18 h [3, 5]: >100 µM
CC[C@H]1NC(=O)[C@@H]([C@H](O)[C@H](C)CCCC(=O)NCCOC)N(C)C(=O)[C@@H](C(C)C)N(C)C(=O)[C@@H](CC(C)C)N(C)C(=O)[C@@H](CC(C)C)N(C)C(=O)[C@H](C)NC(=O)[C@@H](C)NC(=O)[C@@H](CC(C)C)N(C)C(=O)[C@@H](C(C)C)NC(=O)[C@H](CC(C)C)N(C)C(=O)[C@@H](C)N(C)C1=O [Compound ZY, [(5R,6R,7S)-6-hydroxy-5-methyl-7-(methylamino)-1-(2-methoxyethylamino)-1-oxo-octanoic acid]1[(R)-methyl-Sar]3 cyclosporin A] | 5.7 nM | Water Solubility Assay, concentration at which the compound remains in solution ([3]; 35 mM HEPES pH 7.8, 1% DMSO, 25 °C, 18 h): 75 to 100 µM
CC[C@H]1NC(=O)[C@@H]([C@H](O)[C@H](C)CCCC(=O)N2CCN(C)CC2)N(C)C(=O)[C@@H](C(C)C)N(C)C(=O)[C@@H](CC(C)C)N(C)C(=O)[C@@H](CC(C)C)N(C)C(=O)[C@H](C)NC(=O)[C@@H](C)NC(=O)[C@@H](CC(C)C)N(C)C(=O)[C@@H](C(C)C)NC(=O)[C@H](CC(C)C)N(C)C(=O)[C@@H](C)N(C)C1=O [Compound T, [(5R,6R,7S)-6-hydroxy-5-methyl-7-(methylamino)-1-(4-methylpiperazin-1-yl)-1-oxo-octanoic acid]^1[(R)-methyl-Sar]^3 cyclosporin A] | 5 nM | solubility at 18 h [3, 5]: >100 µM
CCC1NC(=O)C(C(O)C(C)CCN2CCCN(C)CC2)N(C)C(=O)C(C(C)C)N(C)C(=O)C(CC(C)C)N(C)C(=O)C(CC(C)C)N(C)C(=O)C(C)NC(=O)C(C)NC(=O)C(CC(C)C)N(C)C(=O)C(C(C)C)NC(=O)C(CC(C)C)N(C)C(=O)C(C)N(C)C1=O [Compound EG, [[(3R,4R,5S)-4-Hydroxy-3-methyl-5-(methylamino)-1-(4-methyl-[1,4]diazepan-1-yl)-hexanoic acid]^1[(R)-methyl-Sar]^3 cyclosporin A] | 8.2 nM | solubility at 18 h [3, 6]: >100 µM
CC[C@H]1NC(=O)[C@@H]([C@H](O)[C@H](C)CCN2CCOCC2)N(C)C(=O)[C@@H](C(C)C)N(C)C(=O)[C@@H](CC(C)C)N(C)C(=O)[C@@H](CC(C)C)N(C)C(=O)[C@H](C)NC(=O)[C@@H](C)NC(=O)[C@@H](CC(C)C)N(C)C(=O)[C@@H](C(C)C)NC(=O)[C@H](CC(C)C)N(C)C(=O)[C@@H](SC)N(C)C1=O [Compound K, [(3R,4R,5S)-4-hydroxy-3-methyl-5-(methylamino)-1-N-morpholino-hexanoic acid]^1[(S)-thiomethyl-Sar]^3 cyclosporin A] | – | IC50 ([2]; 1:1 complex with inhibitor): > 10000 nM
CC[C@H]1NC(=O)[C@@H]([C@H](O)[C@H](C)CCN2CCS(=O)(=O)CC2)N(C)C(=O)[C@@H](C(C)C)N(C)C(=O)[C@@H](CC(C)C)N(C)C(=O)[C@@H](CC(C)C)N(C)C(=O)[C@H](C)NC(=O)[C@@H](C)NC(=O)[C@@H](CC(C)C)N(C)C(=O)[C@@H](C(C)C)NC(=O)[C@H](CC(C)C)N(C)C(=O)[C@@H](C)N(C)C1=O [Compound P, [(3R,4R,5S)-4-Hydroxy-3-methyl-5-(methylamino)-1-(1,1-dioxo-thiomorpholino)-hexanoic acid]^1[(R)-Me-Sar]^3 cyclosporin A] | 3.2 nM | –
CCC1NC(=O)C(C(O)C(C)CCNCCc2c[nH]cn2)N(C)C(=O)C(C(C)C)N(C)C(=O)C(CC(C)C)N(C)C(=O)C(CC(C)C)N(C)C(=O)C(C)NC(=O)C(C)NC(=O)C(CC(C)C)N(C)C(=O)C(C(C)C)NC(=O)C(CC(C)C)N(C)C(=O)C(C)N(C)C1=O [Compound AK, [(3R,4R,5S)-4-Hydroxy-3-methyl-5-(methylamino)-1-(2-{1H-imidazol-4-yl}-ethylamino)-hexanoic acid]^1[(R)-methyl-Sar]^3 cyclosporin A] | 42 nM | –
[(3R,4R,5S)-4-Hydroxy-3-methyl-5-(methylamino)-1-2-(N,N-diethylamino)ethoxy-hexanoic acid]^1[(S)-thio-isopropyl-Sar]^3 cyclosporin A [Compound AL] | 27 nM | –
CC[C@H]1NC(=O)[C@@H]([C@H](O)[C@H](C)CCN2CCN(C)CC2)N(C)C(=O)[C@@H](C(C)C)N(C)C(=O)[C@@H](CC(C)C)N(C)C(=O)[C@@H](CC(C)C)N(C)C(=O)[C@H](C)NC(=O)[C@@H](C)NC(=O)[C@@H](CC(C)C)N(C)C(=O)[C@@H](C(C)C)NC(=O)[C@H](CC(C)C)N(C)C(=O)[C@@H](C)N(C)C1=O [Compound L, [(3R,4R,5S)-4-hydroxy-3-methyl-5-(methylamino)-1-(4-methylpiperazino)-hexanoic acid]^1[(R)-Me-Sar]^3 cyclosporin A] | 7.3 nM | –
CC[C@H]1NC(=O)[C@@H]([C@H](O)[C@H](C)CCN2CCNC(=O)C2)N(C)C(=O)[C@@H](C(C)C)N(C)C(=O)[C@@H](CC(C)C)N(C)C(=O)[C@@H](CC(C)C)N(C)C(=O)[C@H](C)NC(=O)[C@@H](C)NC(=O)[C@@H](CC(C)C)N(C)C(=O)[C@@H](C(C)C)NC(=O)[C@H](CC(C)C)N(C)C(=O)[C@@H](C)N(C)C1=O [Compound N, [(3R,4R,5S)-4-hydroxy-3-methyl-5-(methylamino)-1-(N-3-piperazinone)-hexanoic acid]^1[(R)-Me-Sar]^3 cyclosporin A] | 6.1 nM | –

— patent US20160039880A1 (priority 2012, published 2016)
